Assay results reported in patent US20250011368A1, “DLL3 TARGETING PEPTIDES AND CONSTRUCTS THEREOF” (MARIANA ONCOLOGY INC., priority 2023, published 2025).
pKd: −log10 of the molar value. Bridge positions count the residues as written; N and C are the ends. Square brackets hold non-standard residues; d marks the D form. Peptide text beside a SMILES is read from it. * marks the point of attachment. DOTA = O=C(O)CN1CCN(CC(=O)O)CCN(CC(=O)*)CCN(CC(=O)O)CC1; Trp(5-F) = N[C@@H](Cc1c[nH]c2ccc(F)cc12)C(=O)O; Phe(2-CF3) = N[C@@H](Cc1ccccc1C(F)(F)F)C(=O)O; Trp(7-aza) = N[C@@H](Cc1c[nH]c2ncccc12)C(=O)O; Pro(trans-4-F) = O=C(O)[C@@H]1C[C@@H](F)CN1; Phe(4-F) = N[C@@H](Cc1ccc(F)cc1)C(=O)O; Gly(4-THP) = N[C@H](C(=O)O)C1CCOCC1; Nva(3-Et) = CCC(CC)[C@H](N)C(=O)O; Cha = N[C@@H](CC1CCCCC1)C(=O)O; Cba = N[C@@H](CC1CCC1)C(=O)O; Chg = N[C@H](C(=O)O)C1CCCCC1; Tle = CC(C)(C)[C@H](N)C(=O)O; Nle = CCCC[C@H](N)C(=O)O; Aze = O=C(O)[C@@H]1CCN1

Biological target: T1, human DLL3 (Homo sapiens, UniProt Q9NYJ7)
T1 sequence (Q9NYJ7 27-618): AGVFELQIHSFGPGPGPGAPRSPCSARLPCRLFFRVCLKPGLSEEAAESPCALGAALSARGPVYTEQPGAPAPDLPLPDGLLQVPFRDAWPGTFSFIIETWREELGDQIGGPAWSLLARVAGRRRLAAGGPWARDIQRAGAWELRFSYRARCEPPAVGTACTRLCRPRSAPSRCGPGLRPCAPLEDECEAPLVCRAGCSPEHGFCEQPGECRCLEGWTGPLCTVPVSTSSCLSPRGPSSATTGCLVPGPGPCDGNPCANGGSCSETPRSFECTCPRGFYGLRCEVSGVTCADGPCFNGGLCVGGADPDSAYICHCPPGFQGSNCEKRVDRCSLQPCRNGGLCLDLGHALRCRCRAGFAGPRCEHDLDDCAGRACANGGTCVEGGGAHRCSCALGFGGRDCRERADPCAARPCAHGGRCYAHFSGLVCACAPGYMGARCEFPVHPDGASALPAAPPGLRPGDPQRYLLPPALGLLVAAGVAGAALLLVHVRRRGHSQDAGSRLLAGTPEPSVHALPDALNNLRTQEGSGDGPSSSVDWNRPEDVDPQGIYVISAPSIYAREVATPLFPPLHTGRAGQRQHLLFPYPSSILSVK
Experiment: Affinity determination by Surface Plasmon Resonance (SPR)
Format: binding
Conditions: 25° C., biotinylated human DLL3 immobilized on streptavidin sensor chip, 1:1 binding model; read-out: SPR KD
In short: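 Kinetic and affinity constants were derived by fitting sensorgrams to a 1:1 binding model. Graded compound concentrations flowed at 100 μL/minute in 20 mM phosphate running buffer with 2% DMSO over streptavidin-immobilized biotinylated human DLL3, reference-subtracted.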

Row | SMILES | pKd
1 | CCCC[C@H](NC(=O)[C@@H](NC(=O)[C@H](Cc1c[nH]c2ccc(F)cc12)NC(C)=O)[C@@H](C)O)C(=O)N[C@H]1CSSC[C@@H](C(=O)N[C@@H](Cc2c[nH]c3ncccc23)C(=O)N2C[C@H](F)C[C@H]2C(=O)N[C@H](CCCCNC(=O)CN2CCN(CC(=O)O)CCN(CC(=O)O)CCN(CC(=O)O)CC2)C(N)=O)NC(=O)[C@H](CC(=O)O)NC(=O)[C@H](Cc2cnc[nH]2)NC(=O)[C@H](Cc2ccc(F)cc2)NC(=O)[C@H](CC(N)=O)NC(=O)[C@H](CC(N)=O)NC1=O [compound 132, Ac-(5Fluoro-W)-T-(Nle)-C(3)-N-N-(4Fluoro-F)-H-D-C(3)-(7Aza-W)-(trans4Fluoro-P)-[D-Lys(DOTA)]-NH2] (Ac-[Trp(5-F)]T[Nle]CNN[Phe(4-F)]HDC[Trp(7-aza)][Pro(trans-4-F)][dK](DOTA)-NH2; disulfide 4-10) | 8.00 to 9.00
2 | CC(=O)N[C@@H](Cc1c[nH]c2ccc(F)cc12)C(=O)N[C@H](C(=O)N[C@@H](CC1CCCCC1)C(=O)N[C@H]1CSSC[C@@H](C(=O)N[C@@H](Cc2c[nH]c3ncccc23)C(=O)N2C[C@H](F)C[C@H]2C(=O)N[C@H](CCCCNC(=O)CN2CCN(CC(=O)O)CCN(CC(=O)O)CCN(CC(=O)O)CC2)C(N)=O)NC(=O)[C@H](CC(=O)O)NC(=O)[C@H](Cc2cnc[nH]2)NC(=O)[C@H](Cc2ccc(F)cc2)NC(=O)[C@H](CC(N)=O)NC(=O)[C@H](CC(N)=O)NC1=O)[C@@H](C)O [compound 133, Ac-(5Fluoro-W)-T-(CHA)-C(3)-N-N-(4Fluoro-F)-H-D-C(3)-(7Aza-W)-(trans4Fluoro-P)-[D-Lys(DOTA)]-NH2] (Ac-[Trp(5-F)]T[Cha]CNN[Phe(4-F)]HDC[Trp(7-aza)][Pro(trans-4-F)][dK](DOTA)-NH2; disulfide 4-10) | 8.00 to 9.00
3 | CC(=O)N[C@@H](Cc1c[nH]c2ccc(F)cc12)C(=O)N[C@H](C(=O)N[C@H](C(=O)N[C@H]1CSSC[C@@H](C(=O)N[C@@H](Cc2c[nH]c3ncccc23)C(=O)N2C[C@H](F)C[C@H]2C(=O)N[C@H](CCCCNC(=O)CN2CCN(CC(=O)O)CCN(CC(=O)O)CCN(CC(=O)O)CC2)C(N)=O)NC(=O)[C@H](CC(=O)O)NC(=O)[C@H](Cc2cnc[nH]2)NC(=O)[C@H](Cc2ccc(F)cc2)NC(=O)[C@H](CC(N)=O)NC(=O)[C@H](CC(N)=O)NC1=O)C1CCCCC1)[C@@H](C)O [compound 135, Ac-(5Fluoro-W)-T-(Chg)-C(3)-N-N-(4Fluoro-F)-H-D-C(3)-(7Aza-W)-(trans4Fluoro-P)-[D-Lys(DOTA)]-NH2] (Ac-[Trp(5-F)]T[Chg]CNN[Phe(4-F)]HDC[Trp(7-aza)][Pro(trans-4-F)][dK](DOTA)-NH2; disulfide 4-10) | 8.00 to 9.00

The remaining lines, values ahead:

Row | pKd | SMILES
4 | 8.00 to 9.00 | CC(=O)N[C@@H](Cc1c[nH]c2ccc(F)cc12)C(=O)N[C@H](C(=O)N[C@@H](Cc1ccccc1C(F)(F)F)C(=O)N[C@H]1CSSC[C@@H](C(=O)N[C@@H](Cc2c[nH]c3ncccc23)C(=O)N2CC[C@H]2C(=O)N[C@H](CCCCNC(=O)CN2CCN(CC(=O)O)CCN(CC(=O)O)CCN(CC(=O)O)CC2)C(N)=O)NC(=O)[C@H](CC(=O)O)NC(=O)[C@H](Cc2cnc[nH]2)NC(=O)[C@H](Cc2ccc(F)cc2)NC(=O)[C@H](CC(N)=O)NC(=O)[C@H](CC(N)=O)NC1=O)[C@@H](C)O [compound 128, Ac-(5Fluoro-W)-T-(2CF3-F)-C(3)-N-N-(4Fluoro-F)-H-D-C(3)-(7Aza-W)-(Aze)-[D-Lys(DOTA)]-NH2] (Ac-[Trp(5-F)]T[Phe(2-CF3)]CNN[Phe(4-F)]HDC[Trp(7-aza)][Aze][dK](DOTA)-NH2; disulfide 4-10)
5 | 7.00 to 8.00 | CC(=O)N[C@@H](Cc1c[nH]c2ccc(F)cc12)C(=O)N[C@H](C(=O)N[C@H](C(=O)N[C@H]1CSSC[C@@H](C(=O)N[C@@H](Cc2c[nH]c3ncccc23)C(=O)N2C[C@H](F)C[C@H]2C(=O)N[C@H](CCCCNC(=O)CN2CCN(CC(=O)O)CCN(CC(=O)O)CCN(CC(=O)O)CC2)C(N)=O)NC(=O)[C@H](CC(=O)O)NC(=O)[C@H](Cc2cnc[nH]2)NC(=O)[C@H](Cc2ccc(F)cc2)NC(=O)[C@H](CC(N)=O)NC(=O)[C@H](CC(N)=O)NC1=O)C(C)(C)C)[C@@H](C)O [compound 129, Ac-(5Fluoro-W)-T-(Tbg)-C(3)-N-N-(4Fluoro-F)-H-D-C(3)-(7Aza-W)-(trans4Fluoro-P)-[D-Lys(DOTA)]-NH2] (Ac-[Trp(5-F)]T[Tle]CNN[Phe(4-F)]HDC[Trp(7-aza)][Pro(trans-4-F)][dK](DOTA)-NH2; disulfide 4-10)
6 | 8.00 to 9.00 | CCC(CC)[C@H](NC(=O)[C@@H](NC(=O)[C@H](Cc1c[nH]c2ccc(F)cc12)NC(C)=O)[C@@H](C)O)C(=O)N[C@H]1CSSC[C@@H](C(=O)N[C@@H](Cc2c[nH]c3ncccc23)C(=O)N2C[C@H](F)C[C@H]2C(=O)N[C@H](CCCCNC(=O)CN2CCN(CC(=O)O)CCN(CC(=O)O)CCN(CC(=O)O)CC2)C(N)=O)NC(=O)[C@H](CC(=O)O)NC(=O)[C@H](Cc2c[nH]cn2)NC(=O)[C@H](Cc2ccc(F)cc2)NC(=O)[C@H](CC(N)=O)NC(=O)[C@H](CC(N)=O)NC1=O [compound 130, Ac-(5Fluoro-W)-T-(Env)-C(3)-N-N-(4Fluoro-F)-H-D-C(3)-(7Aza-W)-(trans4Fluoro-P)-[D-Lys(DOTA)]-NH2] (Ac-[Trp(5-F)]T[Nva(3-Et)]CNN[Phe(4-F)]HDC[Trp(7-aza)][Pro(trans-4-F)][dK](DOTA)-NH2; disulfide 4-10)
7 | 8.00 to 9.00 | CC(=O)N[C@@H](Cc1c[nH]c2ccc(F)cc12)C(=O)N[C@H](C(=O)N[C@H](C(=O)N[C@H]1CSSC[C@@H](C(=O)N[C@@H](Cc2c[nH]c3ncccc23)C(=O)N2C[C@H](F)C[C@H]2C(=O)N[C@H](CCCCNC(=O)CN2CCN(CC(=O)O)CCN(CC(=O)O)CCN(CC(=O)O)CC2)C(N)=O)NC(=O)[C@H](CC(=O)O)NC(=O)[C@H](Cc2cnc[nH]2)NC(=O)[C@H](Cc2ccc(F)cc2)NC(=O)[C@H](CC(N)=O)NC(=O)[C@H](CC(N)=O)NC1=O)C1CCOCC1)[C@@H](C)O [compound 131, Ac-(5Fluoro-W)-T-(THPG)-C(3)-N-N-(4Fluoro-F)-H-D-C(3)-(7Aza-W)-(trans4Fluoro-P)-[D-Lys(DOTA)]-NH2] (Ac-[Trp(5-F)]T[Gly(4-THP)]CNN[Phe(4-F)]HDC[Trp(7-aza)][Pro(trans-4-F)][dK](DOTA)-NH2; disulfide 4-10)
8 | 8.00 to 9.00 | CC(=O)N[C@@H](Cc1c[nH]c2ccc(F)cc12)C(=O)N[C@H](C(=O)N[C@@H](CC1CCC1)C(=O)N[C@H]1CSSC[C@@H](C(=O)N[C@@H](Cc2c[nH]c3ncccc23)C(=O)N2C[C@H](F)C[C@H]2C(=O)N[C@H](CCCCNC(=O)CN2CCN(CC(=O)O)CCN(CC(=O)O)CCN(CC(=O)O)CC2)C(N)=O)NC(=O)[C@H](CC(=O)O)NC(=O)[C@H](Cc2cnc[nH]2)NC(=O)[C@H](Cc2ccc(F)cc2)NC(=O)[C@H](CC(N)=O)NC(=O)[C@H](CC(N)=O)NC1=O)[C@@H](C)O [compound 134, Ac-(5Fluoro-W)-T-(CBA)-C(3)-N-N-(4Fluoro-F)-H-D-C(3)-(7Aza-W)-(trans4Fluoro-P)-[D-Lys(DOTA)]-NH2] (Ac-[Trp(5-F)]T[Cba]CNN[Phe(4-F)]HDC[Trp(7-aza)][Pro(trans-4-F)][dK](DOTA)-NH2; disulfide 4-10)
